Measured values reported in patent US8927500B2, “Peptidomimetic macrocycles” (Aileron Therapeutics, Inc., priority 2012, dated 2015).
Where a SMILES comes first, the peptide text is derived from it. Bridges are numbered along the chain shown (N, C = ends). [ ]: non-standard residue; d: D form. The star is where a group is joined. Trp(6-Cl) = N[C@@H](Cc1c[nH]c2cc(Cl)ccc12)C(=O)O; Phe(4-COOH) = N[C@@H](Cc1ccc(C(=O)O)cc1)C(=O)O; Phe(3,4-F2) = N[C@@H](Cc1ccc(F)c(F)c1)C(=O)O; Palmitoyl = CCCCCCCCCCCCCCCC(=O)*; R8 = C=CCCCCCC[C@@](C)(N)C(=O)O; Cba = N[C@@H](CC1CCC1)C(=O)O; S5 = C=CCCC[C@](C)(N)C(=O)O; Nle = CCCC[C@H](N)C(=O)O

How the values were obtained:
MDMX = target: T1, MDMX (Homo sapiens, UniProt O15151); experiment: Competitive fluorescence polarization assay for MDMX; type: binding; conditions: competitive FP assay; for IC50: read-out: IC50 (MDMX); for Ki: read-out: Ki (MDMX)
T1 sequence (O15151 1-125): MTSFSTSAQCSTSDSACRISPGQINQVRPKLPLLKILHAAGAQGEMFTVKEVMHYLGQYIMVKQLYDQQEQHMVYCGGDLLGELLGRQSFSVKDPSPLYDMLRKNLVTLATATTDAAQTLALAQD

MDM2 = MDM2 (Homo sapiens, UniProt Q00987); experiment: Competitive fluorescence polarization assay for MDM2; type: binding; conditions: competitive FP assay, MDM2; for IC50: read-out: IC50 (MDM2); for Ki: read-out: Ki (MDM2)
MDM2, sequence (Q00987 1-125): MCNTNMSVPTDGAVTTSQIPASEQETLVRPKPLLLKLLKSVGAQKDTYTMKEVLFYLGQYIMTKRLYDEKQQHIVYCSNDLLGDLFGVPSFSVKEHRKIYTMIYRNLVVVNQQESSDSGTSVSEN

| SMILES | IC50 (MDMX) [nM] | Ki (MDMX) [nM] | IC50 (MDM2) [nM] | Ki (MDM2) [nM] |
| --- | --- | --- | --- | --- |
| CC[C@H](C)[C@H](NC(=O)[C@H](C)NC(=O)[C@H](C)NC(=O)[C@]1(C)CCCC=CCCCCCC[C@@](C)(NC(=O)[C@H](Cc2ccc(F)c(F)c2)NC(=O)[C@@H](NC(=O)[C@H](CC(C)C)NC(C)=O)[C@@H](C)O)C(=O)N[C@@H](CCC(=O)O)C(=O)N[C@@H](Cc2ccc(O)cc2)C(=O)N[C@@H](Cc2c[nH]c3ccccc23)C(=O)N[C@@H](C)C(=O)N[C@@H](CCC(N)=O)C(=O)N[C@@H](CC2CCC2)C(=O)N1)C(=O)N[C@H](C)C(N)=O [compound 248] (Ac-LT[Phe(3,4-F2)][R8]EYWAQ[Cba][S5]AAI[dA]-NH2; staple 4-11) | 10 to 100 | 10 to 100 | 10 to 100 | < 10 |
| CCCCCCCCCCCCCCCC(=O)N[C@@H](CCC(=O)O)C(=O)N[C@H](C(=O)N[C@@H](Cc1ccccc1)C(=O)N[C@]1(C)CCCCCCC=CCCC[C@@](C)(C(=O)N[C@@H](CO)C(=O)N[C@@H](C)C(=O)N[C@@H](C)C(N)=O)NC(=O)[C@H](CC2CCC2)NC(=O)[C@H](CCC(N)=O)NC(=O)[C@H](C)NC(=O)[C@H](Cc2c[nH]c3ccccc23)NC(=O)[C@H](Cc2ccc(O)cc2)NC(=O)[C@H](CCC(=O)O)NC1=O)[C@@H](C)O [compound 250] (Palmitoyl-ETF[R8]EYWAQ[Cba][S5]SAA-NH2; staple 4-11) | > 1000 | > 1000 | 100 to 1000 | 100 to 1000 |
| CC(=O)N[C@@H](CC(C)C)C(=O)N[C@H](C(=O)N[C@@H](Cc1ccccc1)C(=O)N[C@]1(C)CCCCCCC=CCCC[C@@](C)(C(=O)N[C@@H](CO)C(=O)N[C@@H](C)C(=O)N[C@@H](C)C(N)=O)NC(=O)[C@H](CC2CCC2)NC(=O)[C@H](CCC(N)=O)NC(=O)[C@H](C)NC(=O)[C@H](Cc2c[nH]c3ccccc23)NC(=O)[C@H](Cc2ccc(O)cc2)NC(=O)[C@H](C)NC1=O)[C@@H](C)O [compound 255] (Ac-LTF[R8]AYWAQ[Cba][S5]SAA-NH2; staple 4-11) | 10 to 100 | 10 to 100 | 10 to 100 | < 10 |
| CC(=O)N[C@@H](CC(C)C)C(=O)N[C@H](C(=O)N[C@@H](Cc1ccccc1)C(=O)N[C@]1(C)CCCCCCC=CCCC[C@@](C)(C(=O)N[C@@H](CO)C(=O)N[C@@H](C)C(=O)N[C@@H](Cc2ccccc2)C(N)=O)NC(=O)[C@H](CC2CCC2)NC(=O)[C@H](CCC(N)=O)NC(=O)[C@H](C)NC(=O)[C@H](Cc2c[nH]c3ccccc23)NC(=O)[C@H](Cc2ccc(O)cc2)NC(=O)[C@H](CCC(=O)O)NC1=O)[C@@H](C)O [compound 256] (Ac-LTF[R8]EYWAQ[Cba][S5]SAF-NH2; staple 4-11) | 10 to 100 | 10 to 100 | 10 to 100 | < 10 |
| CC(=O)N[C@@H](CC(C)C)C(=O)N[C@H](C(=O)N[C@@H](Cc1ccccc1)C(=O)N[C@]1(C)CCCCCCC=CCCC[C@@](C)(C(=O)N[C@@H](CO)C(=O)N[C@@H](C)C(=O)N[C@@H](Cc2ccccc2)C(=O)N[C@H](C)C(N)=O)NC(=O)[C@H](CC2CCC2)NC(=O)[C@H](CCC(N)=O)NC(=O)[C@H](C)NC(=O)[C@H](Cc2c[nH]c3ccccc23)NC(=O)[C@H](Cc2ccc(O)cc2)NC(=O)[C@H](CCC(=O)O)NC1=O)[C@@H](C)O [compound 257] (Ac-LTF[R8]EYWAQ[Cba][S5]SAF[dA]-NH2; staple 4-11) | 10 to 100 | 10 to 100 | 10 to 100 | < 10 |
| CC(=O)N[C@@H](CC(C)C)C(=O)N[C@H](C(=O)N[C@@H](Cc1ccccc1)C(=O)N[C@]1(C)CCCCCCC=CCCC[C@@](C)(C(=O)N[C@@H](CO)C(=O)N[C@@H](C)C(=O)N[C@@H](Cc2ccccc2)C(N)=O)NC(=O)[C@H](CC2CCC2)NC(=O)[C@H](CCC(N)=O)NC(=O)[C@H](C)NC(=O)[C@H](Cc2c[nH]c3ccccc23)NC(=O)[C@H](Cc2ccc(O)cc2)NC(=O)[C@H](C)NC1=O)[C@@H](C)O [compound 258] (Ac-LTF[R8]AYWAQ[Cba][S5]SAF-NH2; staple 4-11) | 100 to 1000 | 10 to 100 | 10 to 100 | < 10 |
| CC(=O)N[C@@H](CC(C)C)C(=O)N[C@H](C(=O)N[C@@H](Cc1ccc(F)c(F)c1)C(=O)N[C@]1(C)CCCCCCC=CCCC[C@@](C)(C(=O)N[C@@H](CO)C(=O)N[C@@H](C)C(=O)N[C@@H](Cc2ccccc2)C(N)=O)NC(=O)[C@H](CC2CCC2)NC(=O)[C@H](CCC(N)=O)NC(=O)[C@H](C)NC(=O)[C@H](Cc2c[nH]c3ccccc23)NC(=O)[C@H](Cc2ccc(O)cc2)NC(=O)[C@H](C)NC1=O)[C@@H](C)O [compound 259] (Ac-LT[Phe(3,4-F2)][R8]AYWAQ[Cba][S5]SAF-NH2; staple 4-11) | 10 to 100 | 10 to 100 | 10 to 100 | < 10 |
| CC(=O)N[C@@H](CC(C)C)C(=O)N[C@H](C(=O)N[C@@H](Cc1ccccc1)C(=O)N[C@]1(C)CCCCCCC=CCCC[C@@](C)(C(=O)N[C@@H](CO)C(=O)N[C@@H](C)C(=O)N[C@@H](Cc2ccccc2)C(N)=O)NC(=O)[C@H](CC2CCC2)NC(=O)[C@H](CCC(N)=O)NC(=O)[C@H](C)NC(=O)[C@H](Cc2c[nH]c3ccccc23)NC(=O)[C@H](Cc2ccc(C(=O)O)cc2)NC(=O)[C@H](C)NC1=O)[C@@H](C)O [compound 260] (Ac-LTF[R8]A[Phe(4-COOH)]WAQ[Cba][S5]SAF-NH2; staple 4-11) | 10 to 100 | 10 to 100 | 10 to 100 | < 10 |
| CC(=O)N[C@@H](CC(C)C)C(=O)N[C@H](C(=O)N[C@@H](Cc1ccccc1)C(=O)N[C@]1(C)CCCCCCC=CCCC[C@@](C)(C(=O)N[C@@H](CO)C(=O)N[C@@H](C)C(=O)N[C@@H](Cc2ccccc2)C(N)=O)NC(=O)[C@H](CC2CCC2)NC(=O)[C@H](CCC(N)=O)NC(=O)[C@H](C)NC(=O)[C@H](Cc2c[nH]c3cc(Cl)ccc23)NC(=O)[C@H](Cc2ccc(O)cc2)NC(=O)[C@H](CCC(=O)O)NC1=O)[C@@H](C)O [compound 261] (Ac-LTF[R8]EY[Trp(6-Cl)]AQ[Cba][S5]SAF-NH2; staple 4-11) | 100 to 1000 | 10 to 100 | 10 to 100 | < 10 |
| CC(=O)N[C@@H](CC(C)C)C(=O)N[C@H](C(=O)N[C@@H](Cc1ccccc1)C(=O)N[C@]1(C)CCCCCCC=CCCC[C@@](C)(C(=O)N[C@@H](CO)C(=O)N[C@@H](C)C(=O)N[C@@H](Cc2ccccc2)C(N)=O)NC(=O)[C@H](CC2CCC2)NC(=O)[C@H](CCC(N)=O)NC(=O)[C@H](CO)NC(=O)[C@H](Cc2c[nH]c3ccccc23)NC(=O)[C@H](Cc2ccc(O)cc2)NC(=O)[C@H](C)NC1=O)[C@@H](C)O [compound 262] (Ac-LTF[R8]AYWSQ[Cba][S5]SAF-NH2; staple 4-11) | 100 to 1000 | 10 to 100 | 10 to 100 | < 10 |
| CC(=O)N[C@@H](CC(C)C)C(=O)N[C@H](C(=O)N[C@@H](Cc1ccccc1)C(=O)N[C@]1(C)CCCCCCC=CCCC[C@@](C)(C(=O)N[C@@H](CO)C(=O)N[C@@H](C)C(=O)N[C@@H](Cc2ccccc2)C(N)=O)NC(=O)[C@H](CC2CCC2)NC(=O)[C@H](CCC(N)=O)NC(=O)[C@H](Cc2c[nH]c3ccccc23)NC(=O)[C@H](Cc2c[nH]c3ccccc23)NC(=O)[C@H](Cc2ccc(O)cc2)NC(=O)[C@H](C)NC1=O)[C@@H](C)O [compound 263] (Ac-LTF[R8]AYWWQ[Cba][S5]SAF-NH2; staple 4-11) | 100 to 1000 | 10 to 100 | 10 to 100 | < 10 |
| CC[C@H](C)[C@H](NC(=O)[C@H](C)NC(=O)[C@H](C)NC(=O)[C@]1(C)CCCC=CCCCCCC[C@@](C)(NC(=O)[C@H](Cc2ccccc2)NC(=O)[C@@H](NC(=O)[C@H](CC(C)C)NC(C)=O)[C@@H](C)O)C(=O)N[C@@H](C)C(=O)N[C@@H](Cc2ccc(O)cc2)C(=O)N[C@@H](Cc2c[nH]c3ccccc23)C(=O)N[C@@H](C)C(=O)N[C@@H](CCC(N)=O)C(=O)N[C@@H](CC2CCC2)C(=O)N1)C(=O)N[C@H](C)C(N)=O [compound 264] (Ac-LTF[R8]AYWAQ[Cba][S5]AAI[dA]-NH2; staple 4-11) | 10 to 100 | 10 to 100 | 10 to 100 | < 10 |
| CC[C@H](C)[C@H](NC(=O)[C@H](C)NC(=O)[C@H](C)NC(=O)[C@]1(C)CCCC=CCCCCCC[C@@](C)(NC(=O)[C@H](Cc2ccccc2)NC(=O)[C@@H](NC(=O)[C@H](CC(C)C)NC(C)=O)[C@@H](C)O)C(=O)N[C@@H](C)C(=O)N[C@@H](Cc2ccc(O)cc2)C(=O)N[C@@H](Cc2c[nH]c3cc(Cl)ccc23)C(=O)N[C@@H](C)C(=O)N[C@@H](CCC(N)=O)C(=O)N[C@@H](CC2CCC2)C(=O)N1)C(=O)N[C@H](C)C(N)=O [compound 266] (Ac-LTF[R8]AY[Trp(6-Cl)]AQ[Cba][S5]AAI[dA]-NH2; staple 4-11) | 100 to 1000 | 10 to 100 | 10 to 100 | < 10 |
| CC[C@H](C)[C@H](NC(=O)[C@H](C)NC(=O)[C@H](C)NC(=O)[C@]1(C)CCCC=CCCCCCC[C@@](C)(NC(=O)[C@H](Cc2ccccc2)NC(=O)[C@@H](NC(=O)[C@H](CC(C)C)NC(C)=O)[C@@H](C)O)C(=O)N[C@@H](C)C(=O)N[C@@H](Cc2ccc(C(=O)O)cc2)C(=O)N[C@@H](Cc2c[nH]c3ccccc23)C(=O)N[C@@H](C)C(=O)N[C@@H](CCC(N)=O)C(=O)N[C@@H](CC2CCC2)C(=O)N1)C(=O)N[C@H](C)C(N)=O [compound 267] (Ac-LTF[R8]A[Phe(4-COOH)]WAQ[Cba][S5]AAI[dA]-NH2; staple 4-11) | 10 to 100 | < 10 | 10 to 100 | < 10 |
| CCCC[C@H](NC(=O)[C@H](Cc1c[nH]c2ccccc12)NC(=O)[C@H](C)NC(=O)[C@]1(C)CCCC=CCCCCCC[C@@](C)(NC(=O)[C@H](Cc2ccccc2)NC(=O)[C@@H](NC(=O)[C@H](CCC(=O)O)NC(C)=O)[C@@H](C)O)C(=O)N[C@@H](C)C(=O)N[C@@H](Cc2ccc(O)cc2)C(=O)N[C@@H](Cc2c[nH]c3ccccc23)C(=O)N[C@@H](C)C(=O)N[C@@H](CCC(N)=O)C(=O)N[C@@H](CC2CCC2)C(=O)N1)C(=O)N[C@H](C)C(N)=O [compound 270] (Ac-ETF[R8]AYWAQ[Cba][S5]AW[Nle][dA]-NH2; staple 4-11) | 10 to 100 | 10 to 100 | < 10 | < 10 |
